Reference: publication PMC10755736, “Modulating Liquid–Liquid Phase Separation of Nck Adaptor Protein against Enteropathogenic Escherichia coli Infection” (ACS Central Science, 2023)
Non-standard residues stand in square brackets, D forms with d. Residues, ends and D or L forms follow the SMILES beside them. *: point of attachment. Biotin = O=C1N[C@H]2[C@H](CS[C@H]2CCCCC(=O)*)N1; Benzoyl(4-SO2F) = O=C(c1ccc(S(=O)(=O)F)cc1)*; pY = N[C@@H](Cc1ccc(OP(=O)(O)O)cc1)C(=O)O; Dap = NC[C@H](N)C(=O)O

Legend:
Nck-SH2 [1] = assay: Competitive pull-down of Nck with biotinylated Y474; type: binding; conditions: with or without p1
Protocol: In addition, we performed the reaction between p1 and Nck in a cell lysate, representing a complex solution. We incubated peptide p1 with the lysate of Caco-2 cells overexpressing Nck, and the reaction mixture was resolved on SDS-PAGE and analyzed with Western blotting against an anti-Nck antibody. […] Next, we incubated biotinylated peptide Y474 and Nck solutions with or without p1 peptide, and pulled down proteins that bound with biotinylated Y474.

Caco-2 cells = assay: Cell viability by CCK8 assay; type: cell-based
Protocol: concentrations were added to each well, followed by a 90-min incubation at 37 °C. Diluted streptavidin-HRP solution was then added, followed by substrate solution to develop cover at 450 nm, and recorded by a plate reader. For MST test, a series diluted solutions of the cy5 labeled peptides were incubated with 400 nM Nck for 30 min and loaded into 16 capillaries. And then the samples were scanned and measured at 20% IR Laser power with 30 s laser-on time on a Monolith NT.115 instrument (NanoTemper Technologies). The data were analyzed by KD fitting model (KD) or hill fitting model […]
A Cell Line Stably Expressing N-WASP
To establish a stable pool of cells for N-WASP overexpression, Caco-2 cells were infected at 70-80% confluency with the virus diluted in a suitable medium supplemented with 8 µg/ml […]. After 48 h of incubation, infected cells were treated with puromycin for 7-14 days. The selection medium was changed every 2 days. Under the same treatment conditions, uninfected parental cells were used as selection controls. […]
Plasmid extraction was done using a plasmid DNA Maxi kit (Omega Bio-Tek, GA, USA). […] 48 h after transfection, cells were analyzed by fluorescent micrscopes. Cell viability was measured by a CCK8 assay (Thermo Fisher Scientific) according to its manual. […]
Figure S10. […] The viability was measured at 450 nm absorbance.

Nck = target: T1, Nck (Homo sapiens, UniProt P16333); assay: Reaction kinetics of p1 crosslinking with Nck (SDS-PAGE); type: binding; conditions: 1:1 reaction, p1 5 μM, Nck 5 μM, PBS, 37 °C
T1 construct: GST (followed by PreScission/HRV 3C site) (N, cleaved yes); made in house; host or cells: E. coli BL21(DE3)
Protocol: (§1) ether and purified by reverse-phase HPLC on a C18 column using acetonitrile/H2O (with 0.1% TFA) gradient on a reversed-phase C18 column, confirmed by MALDI-TOF MS analysis (Bruker, USA).
(§2) Pure peptides were lyophilized.
Crosslinking of Peptides with Nck in vitro […]
After incubation, 5´ loading buffer was added into the solution and heated at 100 °C for 10 min. These samples were then separated by 12% SDS-PAGE gel, which contained 10% glycerol instead of DI water, followed by staining with Coomassie brilliant blue. Western blot was then performed using the primary antibody specific for Nck or biotin and the secondary antibody.
Mass Spectrometric Analysis
(§3) The reaction mixture of Nck and p1 were digested with trypsin. Digested peptides were analyzed with an in-line EASY-spray source and nano-LC UltiMate 3000 high-performance liquid chromatography system (Thermo Fisher, USA) interfaced with an Elite mass spectrometer (Thermo Fisher, USA). The eluted peptides were detected by the Elite mass spectrometer, which was operated in data-dependent mode with one full MS scan at R = 60,000 (m/z = 200) mass, followed by MS/MS scans. Mass spectrometry raw data was searched by Maxquant.
Protein–Peptide Conjugation Reactions and the Binding Assay
The reaction solutions were then thermally denatured in the presence of loading dye to stop the reactions. […]

Nck-SH2 [2] = assay: Covalent reaction of p1 with wild-type Nck-SH2; type: binding; conditions: cell lysate in vitro and in the cytosol
Protocol: Figure 5 Peptide p1 reacts with Lys 331. (a) MS/MS analysis of the conjugated site between p1 peptide and Nck-SH2 at Lys331. The corresponding mass data are shown in Figure S6 in the Supporting Information. […] Purified recombinant proteins were incubated with peptides in PBS buffer at 37 °C for 1 min (left) or 10 min (right). Molecular weight markers are shown in the middle. Red arrows indicate the covalent peptide–protein complex. […]
as §1, §2
Crosslinking of Peptides with Nck in vitro
Purified peptides were incubated with the recombinantly expressed Nck protein (10 μM) in PBS buffer at 37 °C. After incubation, 5´ loading buffer was added into the solution and heated at 100 °C for 10 min. […]
as §3, with “Mass spectrometry raw data was searched by Maxquant.” left out

## CC[C@H](C)[C@H](NC(=O)[C@H](Cc1c[nH]cn1)NC(=O)[C@H](CCC(=O)O)NC(=O)[C@H](CCC(=O)O)NC(=O)CCCC[C@@H]1SC[C@@H]2NC(=O)N[C@@H]21)C(=O)N[C@@H](Cc1ccc(OP(=O)(O)O)cc1)C(=O)N[C@@H](CNC(=O)c1ccc(S(=O)(=O)F)cc1)C(=O)N[C@@H](CCC(=O)O)C(=O)N[C@H](C(=O)N[C@@H](C)C(=O)N[C@@H](C)C(=O)N[C@@H](CC(=O)O)C(N)=O)C(C)C [p1] (Biotin-EEHI[pY][Dap](Benzoyl(4-SO2F))EVAAD-NH2; N-terminus and C-terminus assumed)
Nck-SH2 [1]
  binding of Nck to biotinylated Y474 in pull-down: the Nck protein did not bind with Y474
Caco-2 cells; CCK8, p1 0.3125-10 μM with L17E 40 μM for 3 h, 48 h incubation
  cytotoxicity: did not cause noticeable cytotoxicity
Caco-2 cells; inside cells
  cell physiology or toxicity changes from side reactions of sulfonyl fluoride: did not cause noticeable changes in the cell physiology or toxicity
Nck
  time to reach 50% reaction efficiency: 2 min
Nck-SH2 [2]
  reactivity with Nck-SH2: high reactivity with Nck-SH2
